Data as given in the supplement of paper PMC13380429.

Tests used:
Details in all cases: 72 h
[1] = system: Caco-2; assay: drug sensitivity score (DSS) for viability; higher = more toxic; extreme values may be limits of the assay
[2] = system: Calu-3; assay: as above
[3] = system: U2OS; assay: as above
[4] = system: HepG2; assay: as above
[5] = system: Vero E6; assay: as above
[6] = system: Caco-2; assay: cell viability relative to DMSO; higher = less toxic
[7] = system: Calu-3; assay: as above
[8] = system: U2OS; assay: as above
[9] = system: HepG2; assay: as above
[10] = system: Vero E6; assay: as above
[11] = system: Caco-2; assay: relative viability EC50 (midpoint between 100% and the lowest measured viability); higher = less toxic
[12] = system: Calu-3; assay: as above
[13] = system: U2OS; assay: as above
[14] = system: HepG2; assay: as above
[15] = system: Vero E6; assay: as above

Structure (SMILES)	drug sensitivity score [1]	drug sensitivity score [2]	drug sensitivity score [3]	drug sensitivity score [4]	drug sensitivity score [5]	cell viability ([6]; 1 nM)	cell viability ([6]; 10 nM)	cell viability ([6]; 100 nM)	cell viability ([6]; 1000 nM)	cell viability ([6]; 10000 nM)	cell viability ([7]; 1 nM)	cell viability ([7]; 10 nM)	cell viability ([7]; 100 nM)	cell viability ([7]; 1000 nM)	cell viability ([7]; 10000 nM)	cell viability ([8]; 1 nM)	cell viability ([8]; 10 nM)	cell viability ([8]; 100 nM)	cell viability ([8]; 1000 nM)	cell viability ([8]; 10000 nM)	cell viability ([9]; 1 nM)	cell viability ([9]; 10 nM)	cell viability ([9]; 100 nM)	cell viability ([9]; 1000 nM)	cell viability ([9]; 10000 nM)	cell viability ([10]; 1 nM)	cell viability ([10]; 10 nM)	cell viability ([10]; 100 nM)	cell viability ([10]; 1000 nM)	cell viability ([10]; 10000 nM)	relative viability EC50 [11]	relative viability EC50 [12]	relative viability EC50 [13]	relative viability EC50 [14]	relative viability EC50 [15]
O=C1C=Cc2cc(Br)ccc2C1=O [bonaphthone]	0	0.8	0.1	0	0	87.2%	86.3%	97.9%	102%	94.4%	116%	104%	94.3%	88%	99.1%	101%	96.1%	103%	101%	85.6%	101%	117%	97.5%	107%	94.2%	95.5%	98.6%	93.5%	99.5%	102%	> 10 µM	> 10 µM	> 10 µM	> 10 µM	> 10 µM
O=S1(=O)CCN(CN2CCS(=O)(=O)NC2)CN1 [taurolidine]	0.2	0	0	0	0	102%	118%	104%	96.6%	87.9%	99.8%	95.2%	97.6%	92.7%	94.4%	97.3%	98.3%	95.8%	103%	98.7%	106%	89.8%	104%	99.2%	97.2%	114%	99.7%	101%	97.5%	99.4%	> 10 µM	> 10 µM	> 10 µM	> 10 µM	> 10 µM
O=C(O)c1ccccc1Nc1cccc(C(F)(F)F)c1 [flufenamic-acid]	0	0	0	0	0	93.5%	96.3%	85.4%	101%	96.2%	101%	108%	95.9%	112%	92.2%	98.5%	98.1%	95.5%	97.5%	100%	93.7%	103%	101%	102%	101%	104%	94.2%	100%	96%	95.8%	> 10 µM	> 10 µM	> 10 µM	> 10 µM	> 10 µM
Cc1oc(-c2ccccc2)nc1CCOc1ccc(CC2SC(=O)NC2=O)c2sccc12 (stereo not given) [edaglitazone]	0.1	0	0	0	2.6	104%	98.6%	90.4%	96.1%	87.2%	106%	102%	114%	97.5%	102%	99.4%	93%	99.2%	97.4%	96.9%	102%	107%	93.6%	100%	88.8%	103%	102%	89.4%	83.7%	86.7%	> 10 µM	> 10 µM	> 10 µM	> 10 µM	> 10 µM
Cc1cccc(CN2CCN(C(c3ccccc3)c3ccc(Cl)cc3)CC2)c1 (stereo not given) [meclizine]	0.2	0	0	0	0	91.9%	101%	97.1%	99.5%	85.8%	92.7%	88.4%	95.7%	94.1%	87.6%	96.5%	98.6%	93.6%	101%	91.6%	102%	108%	106%	92.3%	90%	107%	105%	103%	102%	97.7%	> 10 µM	> 10 µM	> 10 µM	> 10 µM	> 10 µM
Cc1cc(NC(=O)C(c2ccccc2)N2CCCc3ccccc32)no1 (stereo not given) [CIM-0216]	0	0	0	0	0	97.1%	101%	98.2%	97.4%	114%	103%	98.5%	87.7%	113%	111%	98.7%	104%	97.4%	101%	97%	104%	103%	103%	90.1%	98.3%	104%	99.2%	96.3%	101%	101%	> 10 µM	> 10 µM	> 10 µM	> 10 µM	> 10 µM
O=C(NC1CCN(CCc2c[nH]c3ccccc23)CC1)c1ccccc1 [indoramin]	0	0	0	0	0	89.4%	98.2%	101%	101%	99.5%	90.4%	92.8%	103%	101%	107%	95.3%	99.3%	97.5%	104%	100%	100%	92.9%	105%	98.9%	95.9%	96.7%	94.4%	98.7%	99.7%	102%	> 10 µM	> 10 µM	> 10 µM	> 10 µM	> 10 µM
Cc1cc(OCc2nc(-c3ccccc3Cl)cs2)ccc1OCC(=O)O [GPR120-modulator-1]	0	0	0	0	0	102%	97.5%	103%	98.5%	92.8%	96.4%	99.8%	99.6%	110%	86.9%	92.3%	96.8%	92.2%	102%	94.3%	104%	93.4%	101%	101%	92.8%	101%	102%	102%	97.9%	97.1%	> 10 µM	> 10 µM	> 10 µM	> 10 µM	> 10 µM
COc1ccc2cc(OCC3(C(=O)O)CN(C(=O)c4ccc(F)cc4)C3)ccc2c1	0	0	0	0	0	93.5%	102%	94.8%	93.8%	99%	106%	95.4%	104%	110%	102%	94.3%	108%	96.1%	97.9%	95.8%	106%	88.7%	100%	93%	96.9%	99.2%	96.9%	99.5%	96.2%	95%	> 10 µM	> 10 µM	> 10 µM	> 10 µM	> 10 µM
CC1(C)C(=O)N(c2ccc(C#N)c(C(F)(F)F)c2)C(=O)N1CCCCO	0.4	0	0	0	0	104%	94.8%	90.6%	90.7%	89.4%	104%	114%	96%	97.6%	91.9%	99.9%	102%	96.5%	97.6%	98.3%	98.8%	93.9%	103%	91.1%	91.6%	95.6%	103%	100%	103%	99.2%	> 10 µM	> 10 µM	> 10 µM	> 10 µM	> 10 µM
Cc1ccc(S(=O)(=O)NC2c3ccccc3Oc3ccccc32)cc1 [AH-7614]	0	0	0	0	0	96.5%	87.3%	91.7%	92.9%	93.4%	101%	108%	96.5%	96.5%	113%	105%	95.8%	102%	102%	100%	96.4%	91.5%	103%	110%	93%	95.8%	100%	99.1%	98%	103%	> 10 µM	> 10 µM	> 10 µM	> 10 µM	> 10 µM
CN1C(C(=O)Nc2ccccn2)=C(O)c2sc(Cl)cc2S1(=O)=O [lornoxicam]	0	0	0	0	0	110%	95%	99.9%	86.6%	95.5%	95.3%	100%	107%	99.8%	104%	100%	93.8%	102%	94.7%	100%	91.1%	104%	100%	104%	97.4%	92.4%	98.8%	94.8%	97.1%	91.3%	> 10 µM	> 10 µM	> 10 µM	> 10 µM	> 10 µM
O=C(c1ccc2nccnc2c1)N1CCCCC1 [ampalex]	0	0	0	0	0	97.6%	100%	94.5%	103%	101%	97.4%	107%	95.5%	96.6%	100%	98.3%	102%	94.8%	99.7%	102%	103%	99.6%	108%	102%	102%	96.3%	96.8%	98.8%	93.1%	94%	> 10 µM	> 10 µM	> 10 µM	> 10 µM	> 10 µM
CCOCCOc1ccccc1C(N)=O [etosalamide]	0	0	0	0	0	91.3%	89.5%	108%	97.9%	100%	102%	90.5%	97.6%	101%	98.7%	102%	99.9%	102%	101%	97.7%	111%	104%	86.7%	101%	92.3%	104%	93.7%	93.3%	95.4%	96.1%	> 10 µM	> 10 µM	> 10 µM	> 10 µM	> 10 µM
